Laboratory results reported in PubChem BioAssay AID2305 (GlaxoSmithKline (GSK), 2010).

system: P. falciparum 3D7 growth, pLDH absorbance; assay: P. falciparum 3D7 growth inhibition, dose response, strain 3D7 (AID 2305)

| SMILES | IC50 [nM] |
| --- | --- |
| COc1ccc(-c2cc(-c3nc4ccc(C(=O)N5CCOCC5)cc4[nH]3)c(=O)n(C)c2)cc1OC | 860 |
| CCN(CC)CCN(Cc1ccc(-c2ccc(C(F)(F)F)cc2)cc1)C(=O)Cn1c(CCc2cccc(F)c2F)c(C)c(=O)c2ccccc21 | 940 |
| COc1ccc2nccc([C@@H](O)CN3CCC(NCc4nc5c(OCc6ccccc6)cccc5[nH]4)CC3)c2c1 | 180 |
| C#CCN1CCC2=C(C1)c1c(O)cc(C(C)C(C)CCc3ccc(F)cc3)cc1OC2(C)C (stereo not given) | 180 |
| O=C(Nc1cccc(-c2ccc(-c3nc4ccc(F)cc4[nH]3)cc2)c1)Nc1ccc(F)c(F)c1F | 110 |
| COc1ccc2ncc(F)c(CCN3C[C@H](CNCc4ccccc4)[C@H](O)C3)c2n1 | 910 |
| CC(CN1CCN(C)CC1)C(=O)Nc1cccc(-c2cccc(-c3nc4ccccc4[nH]3)c2)c1 (stereo not given) | 1010 |
| Cc1cc(C=C2SC(=Nc3ccccc3)N(C3CCCC3)C2=O)c(C)n1-c1ccc(Cl)cc1 | 880 |
| Cc1nc2sccn2c1C(=O)NCCc1ccccc1Cl | 800 |
| CCCc1ccc(NC(=O)c2cccc(CN3CCCN(Cc4cccc(C#N)c4)CC3)c2)cc1 | 980 |
| COc1ccc2nccc([C@@H](O)CN3CCC(NCc4ccc5c(c4)NC(=O)CS5)CC3)c2n1 | 750 |
| O=C1C([N+](=O)[O-])=C(O)c2cccc(F)c21 | 150 |
| O=C(Nc1ccc(-c2nc3ccccc3[nH]2)cc1)c1cnc(Cl)c(Cl)c1 | 730 |
| COc1ccc2nc(C)cc(Nc3ccc(Cl)cc3)c2c1 | 950 |
| O=C(/C=C/c1ccc(Cl)c(Cl)c1)NCCCCCN1CCC(C(=O)Nc2cccc(Cl)c2)CC1 | 680 |
| CCN(CCCN1CCCCC1)c1cc(C)nc(Nc2ccc(C)c(C)c2)n1 | 1020 |
| COc1ccc(C2C(C(=O)Nc3cc(C)ccc3OC)c3ccccc3C(=O)N2C)cc1 (stereo not given) | 980 |
| CC(C)c1ccc(NC(=O)c2cccc(CN3CCCN(Cc4cccc(O)c4)CC3)c2)cc1 | 770 |
| Cc1cc(N(C)C)nc(Nc2ccc(NC(=O)Nc3ccccc3)cc2)n1 | 130 |
| O=C(C=Cc1ccc(Cl)c(Cl)c1)NCCCCCN1CCCC(CCCNS(=O)(=O)c2ccc(Br)cc2)C1 (stereo not given) | 960 |
| COc1ccc(CCn2c(=N)c(C(=O)NC3CCCC3)cc3c(=O)n4ccccc4nc32)cc1 | 680 |
| CC(C)CNC(=O)CN1C(=O)C(c2ccccc2)(c2ccccc2)N=C1N | 820 |
| NC(Cc1cccc(I)c1)C(=O)NCC1CCCO1 (stereo not given) | 890 |
| Cn1ccnc1CNC(=O)c1ccc(-c2cccc(-c3nc4ccc(F)cc4[nH]3)c2)cc1 | 980 |

| SMILES | IC50 [nM] |
| --- | --- |
| CN(C)CCCOc1ccc(CN2CC[C@H](NC(=O)c3ccc(Cl)c(Cl)c3)C2)c2ccccc12 | 880 |
| CC1(C)N=C(N)N=C(N)N1c1cccc(Cl)c1 | 40 |
| COc1ccc2ncc(F)c([C@@H](O)CN3CCC(NCc4ccc5c(c4)NCCS5)CC3)c2n1 | 500 |
| O=C(Nc1cccc(C(F)(F)F)c1)N1CCOC(CCN2CCC(c3ccccc3)CC2)(c2ccc(Cl)c(Cl)c2)C1 (stereo not given) | 1110 |
| Fc1cccc(COc2ccc(Nc3ncnc4sc(C#C[C@H]5CC[C@H](CN6CCOCC6)N5)cc34)cc2Cl)c1 | 920 |
| COc1ccc(S(=O)(=O)N2CCOCC2)cc1NC(=O)c1cc2ccccc2o1 | 790 |
| CC1(C)CN2CCCC2c2cc(NC(=O)/C=C/c3ccccc3Cl)ccc21 (stereo not given) | 990 |
| Cc1cccc2[nH]c(-c3cccc(-c4ccc(CNCCc5ccncc5)cc4)c3)nc12 | 120 |
| CN(C)CCCNc1nccc(N(C)c2ccc(NC(=O)Nc3cc(C(F)(F)F)ccc3F)cc2)n1 | 980 |
| Cc1cccc2[nH]c(-c3ccc(-c4cccc(CN5CCC(N)C5)c4)s3)nc12 (stereo not given) | 770 |
| COc1ccc(NC(=O)c2ccc(Br)c(C)c2)cc1N1CCN(CCCCc2ccccc2)CC1 | 820 |
| O=C(Nc1ccc2c(c1)CCC2)c1ccc(N2CCN(c3ccncc3)CC2)cc1 | 1130 |
| Nc1nc(N)c2c3c(cnc2n1)CCCC3 | 770 |
| FC(F)(F)c1ccc2nc(-c3ccc(-c4ccc(CNCCN5CCNCC5)cc4)s3)[nH]c2c1 | 910 |
| COc1ccc(-c2cccc(NC(=O)c3cccs3)c2)cc1CN1CCCN(C)CC1 | 700 |
| O=C(/C=C/c1ccc(Cl)c(Cl)c1)NCC(CCCN1CCC(c2c[nH]c3ccccc23)CC1)c1ccccc1 (stereo not given) | 810 |
| COc1ccc(-c2cccc(NC(=O)c3cccc(C#N)c3)c2)cc1CN1CCCN(C)CC1 | 190 |
| CCN(CC)CCN(Cc1ccc(-c2ccc(Br)cc2)cc1)C(=O)Cn1c(CCc2cccc(F)c2F)nc(=O)c2ccccc21 | 790 |
| CN(CCN(C)C(=O)NCc1ccccc1)C(=O)NCc1ccccc1 | 930 |
| CCCCCn1c(Sc2ccc(C#N)c([N+](=O)[O-])c2)nnc1-c1ccccc1 | 860 |
| COc1ccc(CNCc2ccc(-c3ccc(-c4nc5c(C)cccc5[nH]4)cc3)cc2)cc1 | 340 |
| Cc1cc(NC(=O)c2cccs2)ccc1OC1CCN(Cc2ccc(C#N)cc2)C1 (stereo not given) | 850 |
| O=C(N[C@H]1CCN(Cc2ccc(OCCN3CCNCC3)c(Br)c2)C1)c1ccc(Cl)c(Cl)c1 | 480 |
| CN1CCC(N(Cc2ccc(-c3ccc(C(F)(F)F)cc3)nc2)C(=O)Cn2c(CCc3cccc(F)c3F)cc(=O)c3ccccc32)CC1 | 1100 |

| SMILES | IC50 [nM] |
| --- | --- |
| O=C(O)c1cc(OCC(O)COc2ccc(O)c(C(=O)O)c2)ccc1O | 230 |
| COc1ccc(CNC(=O)c2cnc3c(O)cccc3c2Nc2cccc(NC(=O)c3ccc(F)cc3)c2)cc1 | 1000 |
| N#Cc1ccc2c(c1)CCN(CCC1CCC(NC(=O)/C=C/c3c[nH]c4c(Br)cccc34)CC1)CC2 (stereo not given) | 380 |
| CCN(CC1CCN(CC2(O)CCOCC2)CC1)c1cc(C)nc(Nc2ccc(Cl)cc2)n1 | 410 |
| CC(C)(CNC(=O)C1CCN(Cc2ccoc2)CC1)c1nc(-c2ccc(Cl)c(O)c2)c(-c2ccncc2)[nH]1 | 870 |
| O=C(Nc1ccccc1)N(Cc1cccc(-c2ccc(CNC3CCCC3)cc2)c1)C1CCN(Cc2ccccc2)CC1 | 390 |
| CNc1ccc(CNCc2ccc(-c3ccc(-c4nc5ccc(C(F)(F)F)cc5[nH]4)cc3)cc2)cc1 | 170 |
| CC(C)(C)C(=O)N1CCN(c2ccc([N+](=O)[O-])c(NC3CC3)c2)CC1 | 940 |
| CC(C)(CNCc1ccccc1)c1nc(-c2ccc(Cl)c(O)c2)c(-c2ccncc2)[nH]1 | 540 |
| O=C(Nc1ccc(OC2CCN(Cc3ccc(F)cc3)CC2)cc1)c1cccs1 | 970 |
| Cc1cccc2[nH]c(-c3ccc(-c4ccc(NC(=O)C5CCN(C)CC5)cc4)cc3)nc12 | 750 |
| O=C(Nc1cccc(-c2ccc(-c3nc4ccccc4[nH]3)cc2)c1)c1cccnc1 | 1040 |
| N#Cc1ccc(NC(=NC2Cc3ccccc3C2)Nc2cccc(Cl)c2Cl)c(O)c1 | 830 |
| O=C(Nc1ccc(Br)cc1)N1CCC(n2c(-c3ccccc3)nc3cccnc32)CC1 | 760 |
| CC(C)c1ccc(NC(=O)c2ccc(C(=O)NCC3CCN(CC4CCCCC4)CC3)cc2)cc1 | 900 |
| Cc1cccc(NC(=O)c2ccc(C(=O)NC3CCN(CC4CCCCC4)C3)cc2)c1 (stereo not given) | 920 |
| O=C(Nc1ccc(OC2CCN(Cc3ccccc3)C2)c(Cl)c1)c1ccco1 (stereo not given) | 410 |
| Cn1cc(-c2ccnc3[nH]c(-c4cccc(CNC5CCC(O)CC5)c4)cc23)cn1 (stereo not given) | 900 |
| CN1CCC(N2CCN(Cc3cccc(-c4cccc(-c5nc6ccccc6[nH]5)c4)c3)CC2)CC1 | 190 |
| CCC(C)NS(=O)(=O)c1ccc2nc(Nc3cccc(SC)c3)n(C(C)C(C)C)c2c1 (stereo not given) | 500 |
| Cn1cc(C2CCN(CCCCNC(=O)c3ccc(-c4ccc(C(F)(F)F)cc4)c(CO)c3)CC2)c2ccccc21 | 1000 |
| CN1CCN(c2cccc(-c3nnc(-c4cccc(OCC(=O)NCc5ccc(C(F)(F)F)cc5)c4)o3)c2)CC1 | 760 |
| COc1cc(-c2nc(-c3ccccc3)c(-c3ccc(C(=O)c4ccc(F)cc4)cc3)[nH]2)cc(OC)c1O | 660 |
| NC1CCCN(Cc2cccc(-c3ccc(-c4nc5ccc(C(F)(F)F)cc5[nH]4)cc3)c2)C1 (stereo not given) | 520 |

| SMILES | IC50 [nM] |
| --- | --- |
| CCCC(CNCc1cccc(OC(F)(F)C(F)F)c1)CNc1cc(=O)c2ccccc2[nH]1 (stereo not given) | 590 |
| O=c1c2ccccc2[nH]c2cc(Cl)ccc12 | 870 |
| Cc1[nH]c(C)c(-c2ccc(OCc3cc(C(F)(F)F)cc(C(F)(F)F)c3)nc2)c(=O)c1Br | 150 |
| Cc1ccc(-c2cc(C(=O)Nc3ccc(S(=O)(=O)N(C)Cc4ccccc4)cc3)[nH]n2)c(O)c1 | 850 |
| Cc1nc2nc(N)nc(N)c2c(C)c1Cc1ccc(O)cc1 | 240 |
| Cc1cc(=O)[nH]c2cc(Nc3ccnc(Nc4cccc(C(N)=O)c4)n3)ccc12 | 1520 |
| CN(C)CCNC(=O)[C@H](Cc1ccccc1)NC(=O)c1ccc(O)c(-c2ccc(Cl)c(Cl)c2)c1 | 710 |
| COc1ccc(C(F)(F)F)cc1N1CCN(CCCCNC(=O)c2ccc(NC(=O)c3ccc(Cl)cc3)cc2)CC1 | 910 |
| CC(C)[C@@H](C(=O)NCc1cccc(C(F)(F)F)c1)N1C(=O)CCC1C(=O)Nc1ccc([N+](=O)[O-])cc1 (stereo not given in full) | 930 |
| CC(C)(C)OC(=O)/C=C(\C(=O)OCc1ccc([N+](=O)[O-])cc1)c1csc(NC(c2ccccc2)(c2ccccc2)c2ccccc2)n1 | 860 |
| Cc1ccc2ccncc2c1N | 700 |
| Cc1cnc(-c2ccc(NC(=O)N3CCc4cc5nccc(N6CCN7CCC[C@H]7C6)c5cc43)c3ccccc23)o1 | 860 |
| CN1CCN(CC(=O)Nc2ccc(-c3csc(-c4nc5ccccc5[nH]4)c3)cc2)CC1 | 1560 |
| Nc1c(Cl)cc(C(O)CNCCCCCCCCCc2ccccn2)cc1Cl (stereo not given) | 860 |
| C(=NNc1nc2ccccc2[nH]1)c1ccccc1OCc1ccccc1 | 260 |
| CC(Cc1ccc(OCCCCOc2ccccc2)cc1)NCCCN1CCOCC1 (stereo not given) | 720 |
| COc1cc(C(=O)N2CCOC(CCN3CCc4c(c5ccccc5n4C)C3)(c3ccc(Cl)c(Cl)c3)C2)cc(OC)c1OC (stereo not given) | 360 |
| O=c1cc(NCCC2CC=CCN2Cc2ccc(Cl)c(Cl)c2)[nH]c2ccccc12 (stereo not given) | 1730 |
| CO/C(=C\C=C\c1cc2cc(Cl)c(Cl)cc2[nH]1)C(=O)NC1CCN(CCOc2ccccc2)CC1 | 610 |
| COC(=O)c1ccc(CC(C)NCC(O)c2cccc(C(F)(F)F)c2)cc1C (stereo not given) | 970 |
| O=C(/C=C/c1ccc(Cl)c(Cl)c1)NCCCCCN1CCC(CCCNC(=O)Nc2ccc(C(F)(F)F)cc2)CC1 | 870 |
| NC1=NC2(CCCCC2)N(OCCOc2ccc(Cc3ccccc3)cc2)C(N)=N1 | 1130 |
| Cc1cc(C(=O)NC2CCN(CC3(c4ccccc4)CCCCC3)CC2)on1 | 260 |
